Experiments:
Assay in all cases: viability relative to DMSO control (fraction); higher = less drug effect (more viable cells)
Conditions in all cases: 48 h
[1] = tested on: primary AML patient cells (S091)
Outline: (§1)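 Compounds were pre-plated at five concentrations, one well each, in 384-well plates, and primary mononuclear tumour cells were plated on them at 4 × 10^4 cells per well. The cells, fresh or cryopreserved, had been Ficoll-isolated from blood or bone marrow or taken from processed lymph node. After 48 h at 37 °C and 5% CO2 in RPMI-1640 with penicillin/streptomycin, L-glutamine and human serum, viability was read as CellTiter-Glo luminescence relative to the median of 16 inner DMSO wells.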

[2] = tested on: primary AML patient cells (S019)
Outline: as §1

[3] = tested on: primary FL patient cells (S087)
Outline: as §1

[4] = tested on: primary AML patient cells (S072)
Outline: as §1

[5] = tested on: primary AML patient cells (S025)
Outline: as §1

[6] = tested on: primary B-PLL patient cells (S016)
Outline: as §1

[7] = tested on: primary AML patient cells (S089)
Outline: as §1

[8] = tested on: primary AML patient cells (S002)
Outline: as §1

[9] = tested on: primary FL patient cells (S022)
Outline: as §1

[10] = tested on: primary AML patient cells (S009)
Outline: as §1

[11] = tested on: primary AML patient cells (S017)
Outline: as §1

[12] = tested on: primary AML patient cells (S071)
Outline: as §1

[13] = tested on: primary AML patient cells (S079)
Outline: as §1

[14] = tested on: primary MCL patient cells (S053)
Outline: as §1

[15] = tested on: primary ALL patient cells (S048)
Outline: as §1

[16] = tested on: primary DLBCL patient cells (S082)
Outline: as §1

[17] = tested on: primary ALL patient cells (S088)
Outline: as §1

[18] = tested on: primary AML patient cells (S060)
Outline: as §1

[19] = tested on: primary AML patient cells (S021)
Outline: as §1

Structure (SMILES): CN1CC[C@H](c2c(O)cc(O)c3c(=O)cc(-c4ccccc4Cl)oc23)[C@H](O)C1 [Flavopiridol]
- viability ([1]; 0.0032 µM): 0.917
- viability ([1]; 0.016 µM): 0.921
- viability ([1]; 0.08 µM): 0.604
- viability ([1]; 0.4 µM): 0.113
- viability ([1]; 2 µM): 0.0958
- viability ([2]; 0.0032 µM): 1.08
- viability ([2]; 0.016 µM): 0.769
- viability ([2]; 0.08 µM): 0.961
- viability ([2]; 0.4 µM): 0.198
- viability ([2]; 2 µM): 0.0784
- viability ([3]; 0.0032 µM): 0.967
- viability ([3]; 0.016 µM): 0.91
- viability ([3]; 0.08 µM): 1
- viability ([3]; 0.4 µM): 0.644
- viability ([3]; 2 µM): 0.638
- viability ([4]; 0.0032 µM): 1.17
- viability ([4]; 0.016 µM): 1.05
- viability ([4]; 0.08 µM): 0.754
- viability ([4]; 0.4 µM): 0.156
- viability ([4]; 2 µM): 0.0607
- viability ([5]; 0.0032 µM): 0.958
- viability ([5]; 0.016 µM): 0.861
- viability ([5]; 0.08 µM): 0.691
- viability ([5]; 0.4 µM): 0.13
- viability ([5]; 2 µM): 0.0473
- viability ([6]; 0.0032 µM): 0.932
- viability ([6]; 0.016 µM): 0.862
- viability ([6]; 0.08 µM): 0.959
- viability ([6]; 0.4 µM): 0.217
- viability ([6]; 2 µM): 0.0227
- viability ([7]; 0.0032 µM): 0.742
- viability ([7]; 0.016 µM): 1.01
- viability ([7]; 0.08 µM): 0.362
- viability ([7]; 0.4 µM): 0.0371
- viability ([7]; 2 µM): 0.0437
- viability ([8]; 0.0032 µM): 1.02
- viability ([8]; 0.016 µM): 0.927
- viability ([8]; 0.08 µM): 0.69
- viability ([8]; 0.4 µM): 0.241
- viability ([8]; 2 µM): 0.244
- viability ([9]; 0.0032 µM): 1.04
- viability ([9]; 0.016 µM): 0.958
- viability ([9]; 0.08 µM): 0.995
- viability ([9]; 0.4 µM): 0.227
- viability ([9]; 2 µM): 0.187
- viability ([10]; 0.0032 µM): 0.95
- viability ([10]; 0.016 µM): 0.898
- viability ([10]; 0.08 µM): 0.619
- viability ([10]; 0.4 µM): 0.199
- viability ([10]; 2 µM): 0.0899
- viability ([11]; 0.0032 µM): 1
- viability ([11]; 0.016 µM): 0.986
- viability ([11]; 0.08 µM): 0.96
- viability ([11]; 0.4 µM): 0.18
- viability ([11]; 2 µM): 0.0397
- viability ([12]; 0.0032 µM): 0.914
- viability ([12]; 0.016 µM): 0.833
- viability ([12]; 0.08 µM): 0.54
- viability ([12]; 0.4 µM): 0.0926
- viability ([12]; 2 µM): 0.0942
- viability ([13]; 0.0032 µM): 1.01
- viability ([13]; 0.016 µM): 0.979
- viability ([13]; 0.08 µM): 0.878
- viability ([13]; 0.4 µM): 0.112
- viability ([13]; 2 µM): 0.0261
- viability ([14]; 0.0032 µM): 1.02
- viability ([14]; 0.016 µM): 0.938
- viability ([14]; 0.08 µM): 0.951
- viability ([14]; 0.4 µM): 0.469
- viability ([14]; 2 µM): 0.627
- viability ([15]; 0.0032 µM): 0.998
- viability ([15]; 0.016 µM): 1
- viability ([15]; 0.08 µM): 1.1
- viability ([15]; 0.4 µM): 0.535
- viability ([15]; 2 µM): 0.0207
- viability ([16]; 0.0032 µM): 1.03
- viability ([16]; 0.016 µM): 0.977
- viability ([16]; 0.08 µM): 1.11
- viability ([16]; 0.4 µM): 0.103
- viability ([16]; 2 µM): 0.0254
- viability ([17]; 0.0032 µM): 0.955
- viability ([17]; 0.016 µM): 0.916
- viability ([17]; 0.08 µM): 1.08
- viability ([17]; 0.4 µM): 0.0921
- viability ([17]; 2 µM): 0.0295
- viability ([18]; 0.0032 µM): 0.949
- viability ([18]; 0.016 µM): 0.937
- viability ([18]; 0.08 µM): 0.848
- viability ([18]; 0.4 µM): 0.127
- viability ([18]; 2 µM): 0.0228
- viability ([19]; 0.0032 µM): 0.974
- viability ([19]; 0.016 µM): 0.852
- viability ([19]; 0.08 µM): 0.676
- viability ([19]; 0.4 µM): 0.292
- viability ([19]; 2 µM): 0.124
